Test results from patent EP4527828A1, “BIPHENYL COMPOUND, PHARMACEUTICAL COMPOSITION, METHOD FOR PREPARING SAME, AND USE THEREOF” (Longivitron (Suzhou) Biotechnology Co., Ltd, priority 2022, dated 2023).
Like-named read-outs stand apart in the source and are kept apart here.

What was measured:
[1] = molecular target: T1, Human FGL1 protein (Homo sapiens, UniProt Q08830); assay: SPR interaction assay, human FGL1; assay type: binding; conditions: for Note: bound or not bound; for kon: read-out: Ka; for koff: read-out: Kd
T1 sequence (Q08830 23-312): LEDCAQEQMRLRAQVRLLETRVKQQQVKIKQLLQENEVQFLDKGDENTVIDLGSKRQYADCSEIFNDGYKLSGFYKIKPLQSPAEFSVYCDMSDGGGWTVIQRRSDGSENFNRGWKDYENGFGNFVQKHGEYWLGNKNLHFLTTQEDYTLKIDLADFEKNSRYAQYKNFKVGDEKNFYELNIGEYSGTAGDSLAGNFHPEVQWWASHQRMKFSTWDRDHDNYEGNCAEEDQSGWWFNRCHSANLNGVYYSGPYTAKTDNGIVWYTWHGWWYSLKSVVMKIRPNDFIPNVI
Text: (§1) A surface plasmon is an electromagnetic wave on a metal surface and is generated by the interaction of photons and electrons which are freely vibrated. Surface plasmon resonance (SPR) is an optical phenomenon that occurs on the surfaces of two media, and such a phenomenon can be induced by photons or electrons. When light enters an optically thinner medium from an optically denser medium, the phenomenon of total reflection occurs, and an evanescent wave is generated and enters the optically thinner medium. When the totally reflected evanescent wave meets the plasmon wave on the metal surface, resonance may occur, the energy of the reflected light decreases, and a resonance peak occurs on the energy spectrum of the reflected light. Such a resonance is called surface plasmon resonance. The angle of incidence causing the surface plasmon resonance is called an SPR angle. An SPR biosensor provides a sensitive, non-labeled detection technique for monitoring intermolecular interactions in real time. The sensor detects the change in the SPR angle, and the SPR is related to the refractive index of the metal surface. When an analyte binds to the chip surface, the refractive index of the chip surface changes, thus causing the change in the SPR angle. This is the basic principle for the SPR biosensor to detect intermolecular interactions in real time. During the interaction analysis, the change in the SPR angle is recorded on the sensorgram in real time.
(§2) Protein coupling buffer solution: 1.05× PBS-P+; 1.02× PBS-P+
(§3) Interaction buffer solution: 1.0× PBS-P+, 5% DMSO; 1.0× PBS-P+, 2% DMSO

[2] = molecular target: T2, LAG3/MHCII (Homo sapiens, UniProt P18627); assay: HTRF binding inhibition of LAG3 and its ligand MHCII; conditions: binding inhibition LAG3/MHCII
T2 sequence (P18627 23-450 limits assumed): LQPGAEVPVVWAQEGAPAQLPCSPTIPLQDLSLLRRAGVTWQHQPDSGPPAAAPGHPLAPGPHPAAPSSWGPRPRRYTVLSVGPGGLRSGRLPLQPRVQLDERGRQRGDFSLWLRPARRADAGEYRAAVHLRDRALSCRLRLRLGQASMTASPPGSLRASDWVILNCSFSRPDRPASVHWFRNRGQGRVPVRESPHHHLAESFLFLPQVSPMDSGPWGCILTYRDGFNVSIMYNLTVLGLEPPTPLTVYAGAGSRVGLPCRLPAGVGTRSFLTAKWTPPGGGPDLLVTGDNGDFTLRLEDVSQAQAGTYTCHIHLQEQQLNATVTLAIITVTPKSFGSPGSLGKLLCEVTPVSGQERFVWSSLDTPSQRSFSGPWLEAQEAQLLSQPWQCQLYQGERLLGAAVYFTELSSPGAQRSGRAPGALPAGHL
Method: HTRF (Homogeneous time-resolved fluorescence) is based on two techniques, fluorescence resonance energy transfer (FRET) and time-resolved fluorescence (TRF). The detection was carried out using a 384-well plate. 2 µL of a compound to be tested with an appropriate concentration was collected, 4 µL of Tag1-LAG3 protein (with a final concentration of 10 nmol·L^-1) was added, 4 µL of Tag2-MHCII (with a final concentration of 20 nmol·L^-1) was added, and the plate was incubated at room temperature for 15 min. 10 µL of Anti-Tag1-Tb working solution (prepared by adding 25 µL of Anti-Tag1-Tab mother solution to 2475 µL of dilution buffer) was added, 10 µL of Anti-Tag2-XL665 working solution (prepared by adding 25 µL of Tag2-XL665 mother solution to 2475 µL of dilution buffer) was added, and the plate was sealed with a film and incubated at room temperature for 1 h. The detection was carried out using a Perkin Elma Envision instrument.

[3] = molecular target: T3, Human LAG3 protein (Homo sapiens, UniProt P18627); assay: SPR interaction assay, CM5 chip amino coupling, human LAG3; assay type: binding; conditions: for Rmax / Kd / Note / kon / koff: ligand Human LAG3 protein; for Kd: Compound 9 fitted in steady-state mode; for Note: bound or not bound; for kon: read-out: Ka; for koff: read-out: Kd
T3 sequence (P18627 23-525): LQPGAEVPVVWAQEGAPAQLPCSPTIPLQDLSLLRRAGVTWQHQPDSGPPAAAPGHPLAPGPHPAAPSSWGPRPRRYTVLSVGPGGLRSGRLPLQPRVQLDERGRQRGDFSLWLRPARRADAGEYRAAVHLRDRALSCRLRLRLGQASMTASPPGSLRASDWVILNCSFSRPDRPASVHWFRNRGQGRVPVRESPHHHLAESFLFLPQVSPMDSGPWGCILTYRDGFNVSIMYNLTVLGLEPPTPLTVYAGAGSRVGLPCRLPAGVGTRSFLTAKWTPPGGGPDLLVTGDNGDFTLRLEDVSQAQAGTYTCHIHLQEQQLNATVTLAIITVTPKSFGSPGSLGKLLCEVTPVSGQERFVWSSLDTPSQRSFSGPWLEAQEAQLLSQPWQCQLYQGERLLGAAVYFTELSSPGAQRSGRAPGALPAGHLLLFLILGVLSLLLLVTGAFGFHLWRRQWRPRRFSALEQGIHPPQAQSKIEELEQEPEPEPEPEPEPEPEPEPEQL
Text: as §1
Through the information query, the theoretical isoelectric point of the LAG3 protein is about 9.82, and the amino coupling method was contemplated to immobilize the protein. Since the main ligands of the LAG3 protein are FGL1 and MHCII proteins, after the LAG3 protein was coupled, the FGL1 protein sampling method was used to verify the protein activity.
as §2, §3
In this experiment, by using the CM5 chip amino coupling method, the human LAG3 protein was immobilized to the Fc2 or Fc3 channel, and the mouse LAG3 protein was immobilized to the Fc3 or Fc4 channel.
LAG3 protein coupling conditions were as follows: the concentration was about 25 µg/mL, the system was sodium acetate solution with a pH of 5.5, the chip activation time was 420 s, and the blocking time was 420 s.
LAG3 protein coupling conditions were as follows: the concentration was about 50 µg/mL, the system was sodium acetate solution with a pH of 4.5, the chip activation time was 420 s, and the blocking time was 420 s.

[4] = SPR, ligand FGL1 protein, read-out: KD
[5] = text summary of Table 4, read-out: affinities with the new ligand FGL1 of LAG3

SMILES | interaction with the human FGL1 protein ([1]; SPR) | Rmax ([1]; SPR, ligand FGL1 protein) [RU] | Note ([1]; SPR, ligand FGL1 protein) | Kd [1, 4] [µM] | kon ([1]; SPR, ligand FGL1 protein) [M⁻¹ s⁻¹] | koff ([1]; SPR, ligand FGL1 protein) [s⁻¹] | Kd [1, 5] [µM] | IC50 [2] [µM] | interaction with the human LAG3 protein [3] | Rmax [3] [RU] | Kd [3] [µM] | Note [3] | kon [3] [M⁻¹ s⁻¹] | koff [3] [s⁻¹]
CCCCCCOc1ccc2cc1-c1cc(ccc1OCCCCCC)C(=O)CCCCCC2=O [Compound 4] | interacts with the human FGL1 protein | 14.02 | Bound | 23.2 | 2130 | 0.0504 | ~10 | 18 | interacts with the human LAG3 protein | 124.7 | 52.9 | Bound | 418 | 0.0221
CCCCCCOc1ccc(C(=O)O)cc1-c1cc(C(=O)NCCCCNC(=O)C(F)(F)F)ccc1OCCCCCC [Compound 8] | interacts with the human FGL1 protein | 28.91 | Bound | 15.7 | 1470 | 0.0231 | ~10 | 8.34 | interacts with the human LAG3 protein | 8.639 | 7.76 | Bound | 446 | 0.00346
